Key:
Assay in all cases: Test B pre-/postemergence
Format in all cases: in vivo
Design in all cases: key: 0 is no effect; 10 is complete control
[1] = test system: velvetleaf (Abutilon theophrasti)
In short: (§1)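 Compounds in a surfactant-containing, non-phytotoxic solvent blend are applied to freshly planted seed (preemergence) and, concurrently, to seedlings of 2 to 18 cm at 1–4 leaves (postemergence). Plants stay in the greenhouse twelve to sixteen days and are then scored visually from 0 (no effect) to 10 (complete control).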

[2] = test system: pigweed (Amaranthus retroflexus)
In short: as §1

[3] = test system: wheat (Triticum aestivum)
In short: as §1

[4] = test system: giant foxtail (Setaria faberii)
In short: as §1

[5] = test system: cocklebur (Xanthium strumarium)
In short: as §1

[6] = test system: crabgrass (Digitaria sanguinalis)
In short: as §1

[7] = test system: bedstraw (Galium aparine)
In short: as §1

[8] = test system: momingglory (Ipomoea hederacea)
In short: as §1

[9] = test system: broadleaf signalgrass (Brachiaria decumbens)
In short: as §1

corn (Zea mays) = test system: corn (Zea mays)
In short: as §1

rape (Brassica napus) = test system: rape (Brassica napus)
In short: as §1

[10] = test system: sugar beet (Beta vulgaris)
In short: as §1

soybean (Glycine max) = test system: soybean (Glycine max)
In short: as §1

[11] = test system: blackgrass (Alopecurus myosuroides)
In short: as §1

For `Cc1cnc(-c2ccc(C(F)(F)F)cc2)nc1Cn1nc(C(F)(F)F)cc1C` [Compound 13], the “Plant response rating, Velvetleaf” value ([1]; Rate 62 g/ha, Postemergence) was 4, the “Velvetleaf plant response rating” value ([1]; Rate 62 g/ha, Preemergence) was 6 and the “Plant response rating, Velvetleaf” value ([1]; Rate 125 g/ha, Postemergence) was 4. For the same compound, the “Velvetleaf plant response rating” value ([1]; Rate 125 g/ha, Preemergence) was 7, the “Plant response rating, Velvetleaf” value ([1]; Rate 250 g/ha, Postemergence) was 8 and the “Plant response rating, Velvetleaf” value ([1]; Rate 250 g/ha, Preemergence) was 10. The “Plant response rating, Velvetleaf” value ([1]; Rate 500 g/ha, Postemergence) was 8, the “Plant response rating, Velvetleaf” value ([1]; Rate 500 g/ha, Preemergence) was 10 and the “Plant response rating, Redroot pigweed” value ([2]; Rate 62 g/ha, Postemergence) was 9. For the same compound, the “Redroot pigweed plant response rating” value ([2]; Rate 62 g/ha, Preemergence) was 7, the “Plant response rating, Redroot pigweed” value ([2]; Rate 125 g/ha, Postemergence) was 9 and the “Redroot pigweed plant response rating” value ([2]; Rate 125 g/ha, Preemergence) was 9. For the same compound, the “Plant response rating, Redroot pigweed” value ([2]; Rate 250 g/ha, Postemergence) was 10, the “Plant response rating, Redroot pigweed” value ([2]; Rate 250 g/ha, Preemergence) was 9 and the “Plant response rating, Redroot pigweed” value ([2]; Rate 500 g/ha, Postemergence) was 10. The “Plant response rating, Redroot pigweed” value ([2]; Rate 500 g/ha, Preemergence) was 9, the “Plant response rating, Wheat” value ([3]; Rate 62 g/ha, Postemergence) was 2 and the “Wheat plant response rating” value ([3]; Rate 62 g/ha, Preemergence) was 0. The “Plant response rating, Wheat” value ([3]; Rate 125 g/ha, Postemergence) was 3, the “Wheat plant response rating” value ([3]; Rate 125 g/ha, Preemergence) was 0 and the “Plant response rating, Wheat” value ([3]; Rate 250 g/ha, Postemergence) was 3. For the same compound, the “Plant response rating, Wheat” value ([3]; Rate 250 g/ha, Preemergence) was 0, the “Plant response rating, Wheat” value ([3]; Rate 500 g/ha, Postemergence) was 4 and the “Plant response rating, Wheat” value ([3]; Rate 500 g/ha, Preemergence) was 1. The “Plant response rating, Giant foxtail” value ([4]; Rate 62 g/ha, Postemergence) was 2, the “Giant foxtail plant response rating” value ([4]; Rate 62 g/ha, Preemergence) was 9 and the “Plant response rating, Giant foxtail” value ([4]; Rate 125 g/ha, Postemergence) was 3. The “Giant foxtail plant response rating” value ([4]; Rate 125 g/ha, Preemergence) was 10, the “Plant response rating, Giant foxtail” value ([4]; Rate 250 g/ha, Postemergence) was 4 and the “Plant response rating, Giant foxtail” value ([4]; Rate 250 g/ha, Preemergence) was 10. The “Plant response rating, Giant foxtail” value ([4]; Rate 500 g/ha, Postemergence) was 5, the “Plant response rating, Giant foxtail” value ([4]; Rate 500 g/ha, Preemergence) was 10 and the “Plant response rating, Cocklebur” value ([5]; Rate 62 g/ha, Postemergence) was 6. For the same compound, the “Cocklebur plant response rating” value ([5]; Rate 62 g/ha, Preemergence) was 0, the “Plant response rating, Cocklebur” value ([5]; Rate 125 g/ha, Postemergence) was 9 and the “Plant response rating, Cocklebur” value ([5]; Rate 250 g/ha, Postemergence) was 9. The “Plant response rating, Cocklebur” value ([5]; Rate 250 g/ha, Preemergence) was 5, the “Plant response rating, Cocklebur” value ([5]; Rate 500 g/ha, Postemergence) was 9 and the “Plant response rating, Cocklebur” value ([5]; Rate 500 g/ha, Preemergence) was 7. For the same compound, the “Plant response rating, Crabgrass” value ([6]; Rate 62 g/ha, Postemergence) was 3, the “Crabgrass plant response rating” value ([6]; Rate 62 g/ha, Preemergence) was 9 and the “Plant response rating, Crabgrass” value ([6]; Rate 125 g/ha, Postemergence) was 4. The “Crabgrass plant response rating” value ([6]; Rate 125 g/ha, Preemergence) was 10, the “Plant response rating, Crabgrass” value ([6]; Rate 250 g/ha, Postemergence) was 7 and the “Plant response rating, Crabgrass” value ([6]; Rate 250 g/ha, Preemergence) was 10. The “Plant response rating, Crabgrass” value ([6]; Rate 500 g/ha, Postemergence) was 9, the “Plant response rating, Crabgrass” value ([6]; Rate 500 g/ha, Preemergence) was 10 and the “Plant response rating, Bedstraw” value ([7]; Rate 62 g/ha, Postemergence) was 7. For the same compound, the “Bedstraw plant response rating” value ([7]; Rate 62 g/ha, Preemergence) was 1, the “Plant response rating, Bedstraw” value ([7]; Rate 125 g/ha, Postemergence) was 9 and the “Bedstraw plant response rating” value ([7]; Rate 125 g/ha, Preemergence) was 2. For the same compound, the “Plant response rating, Bedstraw” value ([7]; Rate 250 g/ha, Postemergence) was 10, the “Plant response rating, Bedstraw” value ([7]; Rate 250 g/ha, Preemergence) was 5 and the “Plant response rating, Bedstraw” value ([7]; Rate 500 g/ha, Postemergence) was 10. For the same compound, the “Plant response rating, Bedstraw” value ([7]; Rate 500 g/ha, Preemergence) was 6, the “Plant response rating, Morningglory” value ([8]; Rate 62 g/ha, Postemergence) was 7 and the “Morningglory plant response rating” value ([8]; Rate 62 g/ha, Preemergence) was 9. The “Plant response rating, Morningglory” value ([8]; Rate 125 g/ha, Postemergence) was 7, the “Morningglory plant response rating” value ([8]; Rate 125 g/ha, Preemergence) was 10 and the “Plant response rating, Morningglory” value ([8]; Rate 250 g/ha, Postemergence) was 9. The “Plant response rating, Morningglory” value ([8]; Rate 250 g/ha, Preemergence) was 9, the “Plant response rating, Morningglory” value ([8]; Rate 500 g/ha, Postemergence) was 9 and the “Plant response rating, Morningglory” value ([8]; Rate 500 g/ha, Preemergence) was 10. The “Plant response rating, B. signalgrass” value ([9]; Rate 62 g/ha, Postemergence) was 5, the “B. signalgrass plant response rating” value ([9]; Rate 62 g/ha, Preemergence) was 7 and the “Plant response rating, B. signalgrass” value ([9]; Rate 125 g/ha, Postemergence) was 5. For the same compound, the “B. signalgrass plant response rating” value ([9]; Rate 125 g/ha, Preemergence) was 8, the “Plant response rating, B. signalgrass” value ([9]; Rate 250 g/ha, Postemergence) was 7 and the “Plant response rating, B. signalgrass” value ([9]; Rate 250 g/ha, Preemergence) was 9. For the same compound, the “Plant response rating, B. signalgrass” value ([9]; Rate 500 g/ha, Postemergence) was 8, the “Plant response rating, B. signalgrass” value ([9]; Rate 500 g/ha, Preemergence) was 9 and the “Plant response rating, Corn” value (corn (Zea mays); Rate 62 g/ha, Postemergence) was 3. For the same compound, the “Corn plant response rating” value (corn (Zea mays); Rate 62 g/ha, Preemergence) was 1, the “Plant response rating, Corn” value (corn (Zea mays); Rate 125 g/ha, Postemergence) was 3 and the “Corn plant response rating” value (corn (Zea mays); Rate 125 g/ha, Preemergence) was 1. For the same compound, the “Plant response rating, Corn” value (corn (Zea mays); Rate 250 g/ha, Postemergence) was 3, the “Plant response rating, Corn” value (corn (Zea mays); Rate 250 g/ha, Preemergence) was 1 and the “Plant response rating, Corn” value (corn (Zea mays); Rate 500 g/ha, Postemergence) was 4. The “Plant response rating, Corn” value (corn (Zea mays); Rate 500 g/ha, Preemergence) was 2, the “Plant response rating, Rape” value (rape (Brassica napus); Rate 62 g/ha, Postemergence) was 6 and the “Rape plant response rating” value (rape (Brassica napus); Rate 62 g/ha, Preemergence) was 5. For the same compound, the “Plant response rating, Rape” value (rape (Brassica napus); Rate 125 g/ha, Postemergence) was 8, the “Rape plant response rating” value (rape (Brassica napus); Rate 125 g/ha, Preemergence) was 6 and the “Plant response rating, Rape” value (rape (Brassica napus); Rate 250 g/ha, Postemergence) was 9. For the same compound, the “Plant response rating, Rape” value (rape (Brassica napus); Rate 250 g/ha, Preemergence) was 9, the “Plant response rating, Rape” value (rape (Brassica napus); Rate 500 g/ha, Postemergence) was 9 and the “Plant response rating, Rape” value (rape (Brassica napus); Rate 500 g/ha, Preemergence) was 9. The “Plant response rating, Sugarbeets” value ([10]; Rate 62 g/ha, Postemergence) was 9, the “Sugarbeets plant response rating” value ([10]; Rate 62 g/ha, Preemergence) was 9 and the “Plant response rating, Sugarbeets” value ([10]; Rate 125 g/ha, Postemergence) was 10. The “Sugarbeets plant response rating” value ([10]; Rate 125 g/ha, Preemergence) was 10, the “Plant response rating, Sugarbeets” value ([10]; Rate 250 g/ha, Postemergence) was 10 and the “Plant response rating, Sugarbeets” value ([10]; Rate 250 g/ha, Preemergence) was 10. For the same compound, the “Plant response rating, Sugarbeets” value ([10]; Rate 500 g/ha, Postemergence) was 10, the “Plant response rating, Sugarbeets” value ([10]; Rate 500 g/ha, Preemergence) was 10 and the “Plant response rating, Soybean” value (soybean (Glycine max); Rate 62 g/ha, Postemergence) was 4. The “Soybean plant response rating” value (soybean (Glycine max); Rate 62 g/ha, Preemergence) was 1, the “Plant response rating, Soybean” value (soybean (Glycine max); Rate 125 g/ha, Postemergence) was 5 and the “Soybean plant response rating” value (soybean (Glycine max); Rate 125 g/ha, Preemergence) was 1. For the same compound, the “Plant response rating, Soybean” value (soybean (Glycine max); Rate 250 g/ha, Postemergence) was 5, the “Plant response rating, Soybean” value (soybean (Glycine max); Rate 250 g/ha, Preemergence) was 3 and the “Plant response rating, Soybean” value (soybean (Glycine max); Rate 500 g/ha, Postemergence) was 5. The “Plant response rating, Soybean” value (soybean (Glycine max); Rate 500 g/ha, Preemergence) was 3, the “Plant response rating, Blackgrass” value ([11]; Rate 62 g/ha, Postemergence) was 3 and the “Blackgrass plant response rating” value ([11]; Rate 62 g/ha, Preemergence) was 2. For the same compound, the “Plant response rating, Blackgrass” value ([11]; Rate 125 g/ha, Postemergence) was 3, the “Blackgrass plant response rating” value ([11]; Rate 125 g/ha, Preemergence) was 4 and the “Plant response rating, Blackgrass” value ([11]; Rate 250 g/ha, Postemergence) was 5. The “Plant response rating, Blackgrass” value ([11]; Rate 250 g/ha, Preemergence) was 4, the “Plant response rating, Blackgrass” value ([11]; Rate 500 g/ha, Postemergence) was 5 and the “Plant response rating, Blackgrass” value ([11]; Rate 500 g/ha, Preemergence) was 9.

Source: patent US6525001B1, “Substituted pyrimidine and pyridine herbicides” (Mid-American Commercialization Corporation, priority 1997, dated 2003)
